Assay results taken from ChEMBL document CHEMBL1136424, “Novel selective small molecule agonists for peroxisome proliferator-activated receptor delta (PPARdelta)--synthesis and biological activity” (Bioorg Med Chem Lett, 2003).

Experiments:
[1] = target: T1, Peroxisome proliferator-activated receptor delta (Homo sapiens, UniProt Q03181); assay: Maximum transcriptional activation of human PPAR delta receptor
T1 sequence (Q03181 whole entry): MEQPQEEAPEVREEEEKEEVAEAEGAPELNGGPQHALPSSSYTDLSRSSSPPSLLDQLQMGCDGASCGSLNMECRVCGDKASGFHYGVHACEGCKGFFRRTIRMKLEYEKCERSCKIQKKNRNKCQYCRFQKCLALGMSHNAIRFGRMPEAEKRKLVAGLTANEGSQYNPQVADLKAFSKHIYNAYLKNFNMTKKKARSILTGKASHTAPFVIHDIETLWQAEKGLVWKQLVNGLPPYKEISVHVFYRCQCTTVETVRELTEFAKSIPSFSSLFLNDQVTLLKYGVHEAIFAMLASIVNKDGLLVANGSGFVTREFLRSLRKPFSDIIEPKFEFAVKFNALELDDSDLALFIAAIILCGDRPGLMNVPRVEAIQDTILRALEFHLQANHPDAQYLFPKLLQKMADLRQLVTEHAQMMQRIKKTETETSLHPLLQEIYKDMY

[2] = target: T1, Peroxisome proliferator-activated receptor delta; assay: Binding affinity for human PPAR delta receptor
[3] = target: T2, Peroxisome proliferator-activated receptor gamma (Homo sapiens, UniProt P37231); assay: Maximum transcriptional activation of human PPAR gamma receptor
T2 sequence (P37231 whole entry): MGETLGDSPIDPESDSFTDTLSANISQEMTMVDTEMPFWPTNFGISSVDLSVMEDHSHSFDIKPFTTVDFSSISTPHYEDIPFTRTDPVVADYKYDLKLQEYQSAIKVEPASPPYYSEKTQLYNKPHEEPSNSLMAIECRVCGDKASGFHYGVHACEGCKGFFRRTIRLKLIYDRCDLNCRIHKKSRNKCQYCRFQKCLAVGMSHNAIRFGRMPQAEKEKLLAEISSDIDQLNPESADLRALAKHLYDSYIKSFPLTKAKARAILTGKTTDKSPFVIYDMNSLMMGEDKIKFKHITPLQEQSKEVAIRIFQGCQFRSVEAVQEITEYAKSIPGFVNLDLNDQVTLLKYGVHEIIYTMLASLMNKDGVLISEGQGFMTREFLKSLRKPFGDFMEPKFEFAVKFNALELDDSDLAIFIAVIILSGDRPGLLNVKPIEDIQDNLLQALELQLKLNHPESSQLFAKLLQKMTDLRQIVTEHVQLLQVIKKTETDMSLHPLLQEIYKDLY

[4] = target: T3, Peroxisome proliferator-activated receptor alpha (Homo sapiens, UniProt Q07869); assay: Maximum transcriptional activation of human PPAR alpha receptor
T3 sequence (Q07869 whole entry): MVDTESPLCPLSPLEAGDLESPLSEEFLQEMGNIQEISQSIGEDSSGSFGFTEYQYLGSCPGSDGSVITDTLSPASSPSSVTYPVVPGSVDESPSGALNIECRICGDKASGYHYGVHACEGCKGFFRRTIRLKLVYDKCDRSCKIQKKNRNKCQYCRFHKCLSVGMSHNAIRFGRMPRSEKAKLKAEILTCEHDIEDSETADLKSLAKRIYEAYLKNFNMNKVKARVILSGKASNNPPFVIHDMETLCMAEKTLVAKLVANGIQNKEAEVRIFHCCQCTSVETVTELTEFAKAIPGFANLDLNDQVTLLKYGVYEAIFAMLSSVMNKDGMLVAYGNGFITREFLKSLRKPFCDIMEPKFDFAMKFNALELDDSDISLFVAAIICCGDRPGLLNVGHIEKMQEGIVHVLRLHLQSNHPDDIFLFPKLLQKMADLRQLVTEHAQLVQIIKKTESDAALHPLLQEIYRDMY

[5] = target: T2, Peroxisome proliferator-activated receptor gamma; assay: Maximum transcriptional activation of human PPAR gamma receptor; IA=inactive
[6] = target: T3, Peroxisome proliferator-activated receptor alpha; assay: Maximum transcriptional activation of human PPAR alpha receptor; IA=inactive
[7] = target: T4, Peroxisome proliferator-activated receptor gamma (Mus musculus, UniProt P37238); assay: Activity against murine PPAR gamma receptor
T4 sequence (P37238 whole entry): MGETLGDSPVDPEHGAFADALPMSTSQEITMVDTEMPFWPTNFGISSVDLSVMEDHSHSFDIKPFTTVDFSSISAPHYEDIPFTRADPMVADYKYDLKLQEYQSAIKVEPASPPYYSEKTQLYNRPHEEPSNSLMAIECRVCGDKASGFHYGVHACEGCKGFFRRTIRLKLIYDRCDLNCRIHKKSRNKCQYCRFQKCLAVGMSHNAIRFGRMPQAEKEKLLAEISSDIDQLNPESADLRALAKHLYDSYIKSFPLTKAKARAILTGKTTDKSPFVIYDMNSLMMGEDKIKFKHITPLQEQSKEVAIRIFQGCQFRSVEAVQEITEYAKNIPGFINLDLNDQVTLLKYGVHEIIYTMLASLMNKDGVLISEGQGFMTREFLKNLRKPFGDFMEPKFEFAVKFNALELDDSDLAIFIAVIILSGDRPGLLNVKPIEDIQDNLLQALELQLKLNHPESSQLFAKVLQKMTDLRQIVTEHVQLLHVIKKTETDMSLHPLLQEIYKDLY

[8] = Half-life was measured in mice; format: ADME, organism-based; details: mouse, in vivo

| Structure (SMILES) | EC50 [1] | IC50 [2] | EC50 [3] | EC50 [6] | half-life [8] | EC50 [4] | EC50 [5] | EC50 [7] |
| --- | --- | --- | --- | --- | --- | --- | --- | --- |
| Cc1cc(SCc2oc(-c3ccc(C(F)(F)F)cc3)nc2C)ccc1OCC(=O)O | 0.01 µM | 0.003 µM | 1.61 µM | – | – | 2.5 µM | – | – |
| Cc1cc(OCc2oc(-c3ccc(C(F)(F)F)cc3)nc2C)ccc1OCC(=O)O | 0.03 µM | 0.03 µM | – | – | – | 3.2 µM | Not Active | – |
| Cc1cc(SCc2sc(-c3ccc(C(F)(F)F)c(F)c3)nc2C)ccc1OCC(=O)O | – | – | 2 µM | – | – | 1.1 µM | – | > 10 µM |
| Cc1cc(OCc2sc(-c3ccc(C(F)(F)F)cc3)nc2C)ccc1CCC(=O)O | 0.03 µM | 0.06 µM | 4.2 µM | – | – | 1.7 µM | – | – |
| Cc1cc(OCc2sc(-c3ccc(C(F)(F)F)cc3)nc2C)ccc1/C=C/C(=O)O | 0.02 µM | 1 µM | 2.7 µM | – | – | 3.2 µM | – | – |

Further lines, with some results ahead:

| EC50 [1] | IC50 [2] | EC50 [3] | EC50 [6] | half-life [8] | Structure (SMILES) | EC50 [4] | EC50 [5] | EC50 [7] |
| --- | --- | --- | --- | --- | --- | --- | --- | --- |
| 0.09 µM | 0.03 µM | 7.04 µM | – | – | Cc1nc(-c2ccc(C(F)(F)F)cc2)sc1COc1ccc(CCC(=O)O)cc1 | 3 µM | – | – |
| 5.9 µM | 5.5 µM | – | Not Active | – | Cc1nc(-c2ccc(C(F)(F)F)cc2)oc1COc1ccc(C(=O)O)cc1 | – | Not Active | – |
| 0.42 µM | 0.09 µM | 6.4 µM | Not Active | – | Cc1nc(-c2ccc(C(F)(F)F)cc2)oc1CSc1ccc(OCC(=O)O)cc1 | – | – | – |
| 1.9 µM | 1 µM | 7.9 µM | – | – | Cc1nc(-c2ccc(C(F)(F)F)cc2)sc1COc1ccc(CC(=O)O)cc1 | 6.9 µM | – | – |
| 0.06 µM | 0.09 µM | 3.3 µM | – | < 10 min | Cc1nc(-c2ccc(C(F)(F)F)cc2)oc1COc1ccc(CCC(=O)O)cc1 | 0.28 µM | – | – |
| 0.47 µM | 0.34 µM | 9.8 µM | Not Active | – | Cc1nc(-c2ccc(C(F)(F)F)cc2)oc1COc1ccc(OCC(=O)O)cc1 | – | – | – |
